Patent US20230341404A1, “TARGETING STROMA-CANCER INTERACTIONS IN CANCER” (The Regents of the University of California, priority 2022, published 2023)
Residues, ends and D or L forms follow the SMILES beside them. *: point of attachment. Cbz = O=C(OCc1ccccc1)*

What was measured:
KPC or KC cells [1] = assay: uptake of [3H] from [3H]-proline-labelled ECM; assay type: cell-based, mouse; details: LG medium, 24 h
Procedure: To assess the effects of Col I on metabolism, Applicant labeled wild-type and R/R fibroblasts with [^3H]-proline or [U-^13C]-glutamine for five days, during which period the cells coated the plates with Col I-containing ECM. After decellularization, KPC or KC cells and variants thereof were plated and cultured for 24 h in LG medium. The uptake of [^3H] in cells plated on wild-type ECM was dependent on macropinocytosis, as indicated by sensitivity to macropinocytosis inhibitors (EIPA (an NHE1 inhibitor), IPI549 (a PI3Kγ inhibitor) or MBQ-167 (a CDC42 and RAC inhibitor)) and to the knockdown of NHE 1 or SDC1, and enhancement by the ULK1 inhibitor MRT68921 (MRT)^11.
Wild-type or R/R fibroblasts were seeded on 6, 12 or 96-well plates. One day after plating, cells were switched into DMEM (with pyruvate) with 10% dialysed FBS supplemented with or without 500 μM [^3H]-proline or [U-^[…]]-glutamine and 100 μM vitamin C. Cells were cultured for five days with renewal of the medium every 24 h. Then fibroblasts were removed by washing in 1 ml or 500 μl or 100 μl per well PBS with 0.5% (v/v) Triton X-100 and 20 mM NH4OH. The ECM was washed five times with PBS before cancer cell plating. The following day, cancer cells were switched into the indicated medium for 24 or 72 h.

PDAC cells = assay: cell viability assay (Cell Counting Kit-8) on wild-type or R/R ECM; assay type: cell-based, mouse and human; details: LG medium
Procedure: Cells were plated in 96-well plates coated with or without ECM at a density of 3,000 cells (MIA, 1305) or 1,500 cells (KPC or KC) per well and incubated overnight before treatment. 7rh (500 nM), ML120B (10 μM), EIPA (10.5 μM), IPI549 (600 nM), MBQ-167 (500 nM), MRT68921 (600 nM) or ML385 (10 μM), or their combinations, were added to the wells in the presence of complete medium (CM), LG medium or LQ medium for 72 h. Cell viability was determined with a Cell Counting Kit-8 assay (Glpbio). Optical density was read at 450 nm and analysed using a microplate reader with SoftMax 6.5 software (FilterMax F5, Molecular Devices). For all experiments, the medium was replaced every 24 h.

KPC cells = assay: intrasplenic PDAC cell implantation (liver tumours); assay type: in vivo, mouse; details: 10 mg kg^−1 EIPA intraperitoneal every other day
Procedure: FIGS. 14A-14J: Effect of macropinocytosis and mitochondria on Col I-controlled PDAC cell growth. FIG. 14A, Bromodeoxyuridine (BrdU) incorporation into KPC cells plated on ECM mixtures produced by R/R and WT fibroblasts (R:W). Scale bars, 10 μm. FIG. 14B, FIG. 14C, Paren. and IKKα^KD KPC (FIG. 14B) or KC (FIG. 14C) cells were plated −/+ WT or R/R ECM and incubated in LG −/+ indicated reagents. Viable cells were measured after 3 days and depicted relative to untreated plastic-plated Paren. cells. (FIG. 14C). IKKα KD efficiency is shown on the right (FIG. 14B). FIGS. D, E, Viable 1305 (FIG. 14D) or MIA PaCa-2 (FIG. 14E) cells plated as above and incubated in LG −/+ EIPA. f, Viable Paren. and E79Q KPC cells plated, treated, and presented as above. […] Total viable cells were measured as above and are presented relative to the untreated cells. FIG. 14H, Mitochondrial ATP production calculated from FIG. 6B. […] Quantification of the SR positive area is shown on the left. […] Statistical significance determined by two-tailed t-test. […]
Three-month-old Col I^WT or Col I^r/r mice were treated with or without an oral gavage of 25% CCl4 in corn oil twice a week for two weeks. […] Mice were analysed 14 days after treatment with or without 10 mg kg^−1 EIPA (Sigma) by intraperitoneal injection every other day.

DDR1 = assay: immunoblot of DDR1 in KPC cells plated on wild-type or R/R ECM; assay type: cell-based, mouse; details: LG medium, 24 h
Procedure: FIGS. 4A-4G: The Col I—DDR1—NRF2 axis controls macropinocytosis and mitochondrial biogenesis. FIG. 4A, Representative images and quantification of mitochondria and macropinocytosis in TMR-DEX-incubated parental and variant KPC cells grown on wild-type ECM. FIG. 4B, Immunoblot analysis of the indicated proteins in KPC cells grown on plastic or wild-type or R/R ECM and incubated in LG or LQ medium for 24 h. The effects of wild-type and R/R ECM on DDR1 signaling are summarized on the right. mito., mitochondria; pDDR1, phosphorylated DDR1. FIG. 4C, Representative images and quantification of mitochondria and macropinocytosis in TMR-DEX-incubated parental and NRF2^E79Q (E79Q) KPC cells plated on wild-type or R/R ECM in LG medium with or without 7rh or ML120B for 24 h. […] Statistical significance determined by two-tailed t-test. […]
The expression and function of DDR1 vary in different cancer stages and types^18-21. […] Unlike DDR1 in triple-negative breast cancer (TNBC)^20, no shedding of the DDR1 extracellular domain was detected (FIG. 12F). […]
Preparation of protein samples from cells and tissues, immunoblotting and immunoprecipitation were performed as before^10, 30. Immunoreactive bands were detected by an automatic X-ray film processor or a KwikQuant Imager.

KPC or KC cells [2] = assay: luminescence ATP detection assay; assay type: cell-based, mouse; details: cells cultured on wild-type ECM, 24 h
Procedure: KPC or KC cells were grown on 96-well plates coated with or without the indicated ECM in the presence of 100 μl CM or LG medium with or without EIPA (10.5 μM), MBQ-167 (500 nM), MRT68921 (600 nM) or their combinations for 24 h. Then the cell number was measured. Intracellular ATP was determined with a luminescence ATP detection assay system (PerkinElmer) according to the manufacturer's protocol. Finally, luminescence was measured and normalized to cell number.

KPC or KC cells [3] = assay: L-amino acid assay; assay type: cell-based, mouse; details: cells cultured on wild-type ECM, LG medium, 24 h
Procedure: KPC or KC cells were grown on six-well plates coated with or without the indicated ECM in the presence of […] LG medium with or without EIPA (10.5 μM), MRT68921 (600 nM) or their combinations for 24 h. Total amounts of free 1-amino acids (except for glycine) were measured using an L-Amino Acid Assay Kit (Colorimetric, […]) according to the manufacturer's protocol. The concentration of 1-amino acids was calculated within samples by comparing the sample optical density to the standard curve and normalized to cell number.

[4] = IKKα^KD cells versus parental cells
[5] = parental cells on wild-type ECM, 7rh 500 nM, ML120B 10 μM, ML385 10 μM, EIPA 10.5 μM, IPI549 600 nM, MBQ-167 500 nM

Structure (SMILES)	uptake of [3H] (KPC or KC cells [1]; cells plated on R/R ECM)	uptake of [3H] (KPC or KC cells [1]; cells plated on wild-type ECM)	cell growth (viable cells) (PDAC cells; [4])	cell growth (viable cells) (PDAC cells; parental cells on R/R ECM)	cell growth (viable cells) (PDAC cells; [5])	other results
CCn1c2ccccc2c2cc(-n3nncc3-c3ccccc3)ccc21 (racemic) [MBQ-167]	unaffected	sensitivity	more sensitive	did not decrease the low growth	decreased growth on wild-type ECM	
CCN(c1nc(N)c(C(=O)NC(=N)N)nc1Cl)C(C)C [EIPA]	unaffected	sensitivity	more sensitive	did not decrease the low growth	decreased growth on wild-type ECM	tumour growth (KPC cells; Col I^r/r livers): had little effect; tumour growth (KPC cells; wild-type livers): inhibited tumour growth
C[C@H](NC(=O)c1c(N)nn2cccnc12)c1cc2cccc(C#Cc3cnn(C)c3)c2c(=O)n1-c1ccccc1 [IPI549]	unaffected	sensitivity	more sensitive	did not decrease the low growth	decreased growth on wild-type ECM	
CC(C)C[C@@H](C=O)NC(=O)[C@H](CC(C)C)NC(=O)[C@H](CC(C)C)NC(=O)OCc1ccccc1 [MG132] (Cbz-Leu-Leu-Leu-aldehyde)						DDR1 expression (DDR1): rescued DDR1 expression
COc1c(Cl)cc2c([nH]c3cnccc32)c1NC(=O)c1cccnc1C [ML120B]				did not decrease the low growth	decreased growth on wild-type ECM	cell growth (viable cells) (PDAC cells; NRF2(E79Q)-expressing cells): resistant
Cc1ccccc1C(=O)N1CCc2cc(-c3nc(NC(=O)Cc4ccc5c(c4)OCO5)sc3C)ccc21 [ML385]				did not decrease the low growth	decreased growth on wild-type ECM	
CN1CCc2cc(Nc3ncc(C4CC4)c(NCCCNC(=O)C4CCC4)n3)ccc2C1 [MRT68921]		enhancement				levels of ATP (KPC or KC cells [2]): further increased; amino acid content (KPC or KC cells [3]): further increased
